Assay: xn = mol fraction of the nth substance listed
Details: 100 kPa, Liquid; for viscosity: Capillary tube (Ostwald / Ubbelohde) method; for speed of sound: Frequency=3 MHz, Single path-length method; for mass density: Vibrating tube method

C=CCn1cc[n+](C)c1.O=S(=O)([N-]S(=O)(=O)C(F)(F)F)C(F)(F)F + CCCO
Details	mass density [kg/m3]	speed of sound [m/s]	viscosity [mPa·s]
293.15 K, x1 = 0.04962	915	1204.7	2.854
293.15 K, x1 = 0.1003	1005	1193.5	3.841
293.15 K, x1 = 0.1995	1136	1193.5	5.727
293.15 K, x1 = 0.2987	1228	1202.2	7.59
293.15 K, x1 = 0.399	1297	1210.6	9.85
293.15 K, x1 = 0.5003	1352	1221	12.17
293.15 K, x1 = 0.6007	1394	1227.5	15.66
293.15 K, x1 = 0.6971	1428	1234.7	19.1
293.15 K, x1 = 0.8024	1459	1241.9	24.1
293.15 K, x1 = 0.8974	1483	1246.5	30.62
293.15 K, x1 = 1	1505	1251.6	41.83
298.15 K, x1 = 0.04962	–	1189.4	–
298.15 K, x1 = 0.1003	–	1179	–
298.15 K, x1 = 0.1995	–	1180.2	–
298.15 K, x1 = 0.2987	–	1189.5	–
298.15 K, x1 = 0.399	–	1198.3	–
298.15 K, x1 = 0.5003	–	1208.9	–
298.15 K, x1 = 0.6007	–	1215.6	–
298.15 K, x1 = 0.6971	–	1222.9	–
298.15 K, x1 = 0.8024	–	1230.3	–
298.15 K, x1 = 0.8974	–	1235	–
298.15 K, x1 = 1	–	1240.2	–
303.15 K, x1 = 0.04962	906	1174	2.215
303.15 K, x1 = 0.1003	996	1164.6	2.899
303.15 K, x1 = 0.1995	1126	1167	4.266
303.15 K, x1 = 0.2987	1219	1176.9	5.633
303.15 K, x1 = 0.399	1287	1186	7.268
303.15 K, x1 = 0.5003	1341	1197	8.94
303.15 K, x1 = 0.6007	1384	1203.9	11.42
303.15 K, x1 = 0.6971	1418	1211.3	13.82
303.15 K, x1 = 0.8024	1449	1218.8	17.21
303.15 K, x1 = 0.8974	1472	1223.6	21.53
303.15 K, x1 = 1	1495	1228.9	28.51
308.15 K, x1 = 0.04962	902	1158.7	1.969
308.15 K, x1 = 0.1003	991	1150.4	2.555
308.15 K, x1 = 0.1995	1121	1153.9	3.74
308.15 K, x1 = 0.2987	1214	1164.4	4.928
308.15 K, x1 = 0.399	1282	1174	6.339
308.15 K, x1 = 0.5003	1336	1185.2	7.782
308.15 K, x1 = 0.6007	1379	1192.3	9.908
308.15 K, x1 = 0.6971	1413	1199.9	11.95
308.15 K, x1 = 0.8024	1444	1207.5	14.8
308.15 K, x1 = 0.8974	1467	1212.4	18.38
308.15 K, x1 = 1	1489	1217.8	23.96
313.15 K, x1 = 0.04962	898	1143.4	1.759
313.15 K, x1 = 0.1003	987	1136.2	2.266
313.15 K, x1 = 0.1995	1117	1140.9	3.302
313.15 K, x1 = 0.2987	1209	1152	4.344
313.15 K, x1 = 0.399	1277	1162	5.574
313.15 K, x1 = 0.5003	1331	1173.5	6.833
313.15 K, x1 = 0.6007	1374	1180.8	8.677
313.15 K, x1 = 0.6971	1408	1188.6	10.42
313.15 K, x1 = 0.8024	1439	1196.3	12.85
313.15 K, x1 = 0.8974	1462	1201.3	15.85
313.15 K, x1 = 1	1484	1206.8	20.41
318.15 K, x1 = 0.04962	893	1128.2	1.577
318.15 K, x1 = 0.1003	982	1122.1	2.021
318.15 K, x1 = 0.1995	1112	1128	2.938
318.15 K, x1 = 0.2987	1204	1139.7	3.858
318.15 K, x1 = 0.399	1272	1150.1	4.937
318.15 K, x1 = 0.5003	1326	1161.8	6.043
318.15 K, x1 = 0.6007	1369	1169.4	7.657
318.15 K, x1 = 0.6971	1403	1177.4	9.174
318.15 K, x1 = 0.8024	1434	1185.2	11.26
318.15 K, x1 = 0.8974	1457	1190.4	13.81
318.15 K, x1 = 1	1479	1196	17.51
323.15 K, x1 = 0.04962	889	1113	1.421
323.15 K, x1 = 0.1003	977	1108	1.813
323.15 K, x1 = 0.1995	1107	1115.1	2.632
323.15 K, x1 = 0.2987	1199	1127.5	3.453
323.15 K, x1 = 0.399	1268	1138.3	4.402
323.15 K, x1 = 0.5003	1321	1150.3	5.384
323.15 K, x1 = 0.6007	1364	1158.2	6.806
323.15 K, x1 = 0.6971	1398	1166.3	8.132
323.15 K, x1 = 0.8024	1429	1174.3	9.945
323.15 K, x1 = 0.8974	1452	1179.6	12.12
323.15 K, x1 = 1	1474	1185.2	15.19
328.15 K, x1 = 0.04962	884	1097.9	1.284
328.15 K, x1 = 0.1003	973	1094	1.635
328.15 K, x1 = 0.1995	1102	1102.2	2.37
328.15 K, x1 = 0.2987	1194	1115.3	3.106
328.15 K, x1 = 0.399	1263	1126.6	3.956
328.15 K, x1 = 0.5003	1316	1138.8	4.83
328.15 K, x1 = 0.6007	1359	1147	6.09
328.15 K, x1 = 0.6971	1393	1155.3	7.262
328.15 K, x1 = 0.8024	1424	1163.5	8.834
328.15 K, x1 = 0.8974	1447	1168.9	10.73
328.15 K, x1 = 1	1469	1174.7	13.23
333.15 K, x1 = 0.04962	880	1082.7	1.166
333.15 K, x1 = 0.1003	968	1080	1.48
333.15 K, x1 = 0.1995	1097	1089.5	2.146
333.15 K, x1 = 0.2987	1189	1103.1	2.812
333.15 K, x1 = 0.399	1258	1114.9	3.573
333.15 K, x1 = 0.5003	1312	1127.5	4.36
333.15 K, x1 = 0.6007	1354	1135.9	5.485
333.15 K, x1 = 0.6971	1388	1144.5	6.518
333.15 K, x1 = 0.8024	1419	1152.8	7.905
333.15 K, x1 = 0.8974	1442	1158.4	9.475
333.15 K, x1 = 1	1465	1164.2	11.62
338.15 K, x1 = 0.04962	875	1067.5	1.061
338.15 K, x1 = 0.1003	963	1065.9	1.347
338.15 K, x1 = 0.1995	1092	1076.7	1.953
338.15 K, x1 = 0.2987	1184	1091	2.558
338.15 K, x1 = 0.399	1253	1103.4	3.252
338.15 K, x1 = 0.5003	1307	1116.2	3.957
338.15 K, x1 = 0.6007	1349	1124.9	4.964
338.15 K, x1 = 0.6971	1383	1133.8	5.889
338.15 K, x1 = 0.8024	1414	1142.2	7.111
338.15 K, x1 = 0.8974	1437	1147.9	8.498
338.15 K, x1 = 1	1460	1153.8	10.28
343.15 K, x1 = 0.04962	870	1052.3	0.971
343.15 K, x1 = 0.1003	958	1052.2	1.23
343.15 K, x1 = 0.1995	1088	1064.2	1.786
343.15 K, x1 = 0.2987	1179	1078.9	2.342
343.15 K, x1 = 0.399	1248	1092.1	2.974
343.15 K, x1 = 0.5003	1302	1105	3.611
343.15 K, x1 = 0.6007	1345	1114	4.521
343.15 K, x1 = 0.6971	1378	1123.3	5.348
343.15 K, x1 = 0.8024	1409	1131.9	6.435
343.15 K, x1 = 0.8974	1433	1137.8	7.661
343.15 K, x1 = 1	1455	1143.5	9.125

— the NIST ThermoML archive (doi:10.1021/acs.jced.8b00537)
